Source: patent US8580794B2 (AbbVie Inc., priority 2009, dated 2013)

What follows are molecules tested against GST-Bc1-2 (Homo sapiens, UniProt P10415) (assay: Time Resolved-Fluorescence Resonance Energy Transfer (TR-FRET) Bcl-2 binding assay with F-Bak peptide probe). Conditions: GST-Bcl-2 1 nM, F-Bak probe 100 nM, Tb-anti-GST 1 nM; '<' = below limit of detection; read-out: TR-FRET Bcl-2 Binding Ki.
GST-Bc1-2, sequence (P10415 whole entry): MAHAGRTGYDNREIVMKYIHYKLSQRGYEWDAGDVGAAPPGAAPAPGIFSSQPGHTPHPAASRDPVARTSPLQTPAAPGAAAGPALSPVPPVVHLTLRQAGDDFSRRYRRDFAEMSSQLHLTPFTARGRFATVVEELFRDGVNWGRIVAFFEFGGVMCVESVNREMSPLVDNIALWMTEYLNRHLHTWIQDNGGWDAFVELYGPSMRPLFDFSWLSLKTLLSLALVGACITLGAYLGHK

| Compound | Ki [pM] |
| --- | --- |
| CC1(C)CCC(CN2CCN(c3ccc(C(=O)NS(=O)(=O)c4ccc(NCC5CN(CC(=O)O)CCO5)c([N+](=O)[O-])c4)c(Oc4cnc5[nH]ccc5c4)c3)CC2)=C(c2ccc(Cl)cc2)C1 (centres unmarked) [Example 216, (2-{[(4-{[4-(4-{[2-(4-chlorophenyl)-4,4-dimethylcyclohex-1-en-1-yl]methyl}piperazin-1-yl)-2-(1H-pyrrolo[2,3-b]pyridin-5-yloxy)benzoyl]sulfamoyl}-2-nitrophenyl)amino]methyl}morpholin-4-yl)acetic acid] | < 10 |
| COCC1CCC(CNc2ccc(S(=O)(=O)NC(=O)c3ccc(N4CCN(CC5=C(c6ccc(Cl)cc6)CC(C)(C)CC5)CC4)cc3Oc3cnc4[nH]ccc4c3)cc2[N+](=O)[O-])CC1 (centres unmarked) [Example 374, 4-(4-{[2-(4-chlorophenyl)-4,4-dimethylcyclohex-1-en-1-yl]methyl}piperazin-1-yl)-N-{[4-({[4-(methoxymethyl)cyclohexyl]methyl}amino)-3-nitrophenyl]sulfonyl}-2-(1H-pyrrolo[2,3-b]pyridin-5-yloxy)benzamide] | < 1 |
| CC1(C)CCC(CN2CCN(c3ccc(C(=O)NS(=O)(=O)c4ccc(NC5CN(C6CCOCC6)C5)c([N+](=O)[O-])c4)c(Oc4cnc5[nH]ccc5c4)c3)CC2)=C(c2ccc(Cl)cc2)C1 [Example 116, 4-(4-{[2-(4-chlorophenyl)-4,4-dimethylcyclohex-1-en-1-yl]methyl}piperazin-1-yl)-N-({3-nitro-4-[(1-tetrahydro-2H-pyran-4-ylazetidin-3-yl)amino]phenyl}sulfonyl)-2-(1H-pyrrolo[2,3-b]pyridin-5-yloxy)benzamide] | < 10 |
| CC(=O)N[C@H]1CC[C@H](Nc2ccc(S(=O)(=O)NC(=O)c3ccc(N4CCN(CC5=C(c6ccc(Cl)cc6)CC(C)(C)CC5)CC4)cc3Oc3cnc4[nH]ccc4c3)cc2[N+](=O)[O-])CC1 [Example 179, Trans-N-[(4-{[4-(acetylamino)cyclohexyl]amino}-3-nitrophenyl)sulfonyl]-4-(4-{[2-(4-chlorophenyl)-4,4-dimethylcyclohex-1-en-1-yl]methyl}piperazin-1-yl)-2-(1H-pyrrolo[2,3-b]pyridin-5-yloxy)benzamide] | < 10 |
| COCCOCCS(=O)(=O)c1ccc(S(=O)(=O)NC(=O)c2ccc(N3CCN(CC4=C(c5ccc(Cl)cc5)CC(C)(C)CC4)CC3)cc2Oc2cnc3[nH]ccc3c2)cc1[N+](=O)[O-] [Example 59, 4-(4-{[2-(4-chlorophenyl)-4,4-dimethylcyclohex-1-en-1-yl]methyl}piperazin-1-yl)-N-[(4-{[2-(2-methoxyethoxy)ethyl]sulfonyl}-3-nitrophenyl)sulfonyl]-2-(1H-pyrrolo[2,3-b]pyridin-5-yloxy)benzamide] | 203 |
| CC1(C)CCC(CN2CCN(c3ccc(C(=O)NS(=O)(=O)c4ccc(N[C@@H]5CCN(S(C)(=O)=O)C5)c([N+](=O)[O-])c4)c(Oc4cnc5[nH]ccc5c4)c3)CC2)=C(c2ccc(Cl)cc2)C1 [Example 149, 4-(4-{[2-(4-chlorophenyl)-4,4-dimethylcyclohex-1-en-1-yl]methyl}piperazin-1-yl)-N-[(4-{[(3R)-1-(methylsulfonyl)pyrrolidin-3-yl]amino}-3-nitrophenyl)sulfonyl]-2-(1H-pyrrolo[2,3-b]pyridin-5-yloxy)benzamide] | < 10 |
| CC1(C)CCC(CN2CCN(c3ccc(C(=O)NS(=O)(=O)c4ccc(N[C@H]5CCN(CC(F)F)C5)c([N+](=O)[O-])c4)c(Oc4cnc5[nH]ccc5c4)c3)CC2)=C(c2ccc(Cl)cc2)C1 [Example 182, 4-(4-{[2-(4-chlorophenyl)-4,4-dimethylcyclohex-1-en-1-yl]methyl}piperazin-1-yl)-N-[(4-{[(3S)-1-(2,2-difluoroethyl)pyrrolidin-3-yl]amino}-3-nitrophenyl)sulfonyl]-2-(1H-pyrrolo[2,3-b]pyridin-5-yloxy)benzamide] | 68 |
| CC1(C)CCC(CN2CCN(c3ccc(C(=O)NS(=O)(=O)c4ccc(NCCC#N)c([N+](=O)[O-])c4)c(Oc4cnc5[nH]ccc5c4)c3)CC2)=C(c2ccc(Cl)cc2)C1 [Example 62, 4-(4-{[2-(4-chlorophenyl)-4,4-dimethylcyclohex-1-en-1-yl]methyl}piperazin-1-yl)-N-({4-[(2-cyanoethyl)amino]-3-nitrophenyl}sulfonyl)-2-(1H-pyrrolo[2,3-b]pyridin-5-yloxy)benzamide] | < 10 |
| CC1(C)CCC(CN2CCN(c3ccc(C(=O)NS(=O)(=O)c4ccc(NCc5ccc(OC(F)F)cc5)c([N+](=O)[O-])c4)c(Oc4cnc5[nH]ccc5c4)c3)CC2)=C(c2ccc(Cl)cc2)C1 [Example 177, 4-(4-{[2-(4-chlorophenyl)-4,4-dimethylcyclohex-1-en-1-yl]methyl}piperazin-1-yl)-N-[(4-{[4-(difluoromethoxy)benzyl]amino}-3-nitrophenyl)sulfonyl]-2-(1H-pyrrolo[2,3-b]pyridin-5-yloxy)benzamide] | 111 |
| CC1(C)CCC(CN2CCN(c3ccc(C(=O)NS(=O)(=O)c4ccc(OCC#CCN5CCOCC5)c([N+](=O)[O-])c4)c(Oc4cnc5[nH]ccc5c4)c3)CC2)=C(c2ccc(Cl)cc2)C1 [Example 68, 4-(4-{[2-(4-chlorophenyl)-4,4-dimethylcyclohex-1-en-1-yl]methyl}piperazin-1-yl)-N-({4-[(4-morpholin-4-ylbut-2-ynyl)oxy]-3-nitrophenyl}sulfonyl)-2-(1H-pyrrolo[2,3-b]pyridin-5-yloxy)benzamide] | 12 |
| CC1(C)CCC(CN2CCN(c3ccc(C(=O)NS(=O)(=O)c4ccc(NCC5COCCN5)c([N+](=O)[O-])c4)c(Oc4cnc5[nH]ccc5c4)c3)CC2)=C(c2ccc(Cl)cc2)C1 (centres unmarked) [Example 66, 4-(4-{[2-(4-chlorophenyl)-4,4-dimethylcyclohex-1-en-1-yl]methyl}piperazin-1-yl)-N-({4-[(morpholin-3-ylmethyl)amino]-3-nitrophenyl}sulfonyl)-2-(1H-pyrrolo[2,3-b]pyridin-5-yloxy)benzamide] | < 10 |
| CC1(C)CCC(CN2CCN(c3ccc(C(=O)NS(=O)(=O)c4ccc(NCCCN(C5CCC5)C5CC5)c([N+](=O)[O-])c4)c(Oc4cnc5[nH]ccc5c4)c3)CC2)=C(c2ccc(Cl)cc2)C1 [Example 320, 4-(4-{[2-(4-chlorophenyl)-4,4-dimethylcyclohex-1-en-1-yl]methyl}piperazin-1-yl)-N-{[4-({3-[cyclobutyl(cyclopropyl)amino]propyl}amino)-3-nitrophenyl]sulfonyl}-2-(1H-pyrrolo[2,3-b]pyridin-5-yloxy)benzamide] | < 10 |
| CC1(C)CCC(CN2CCN(c3ccc(C(=O)NS(=O)(=O)c4ccc(NN5CCN(C6CCOCC6)CC5)c([N+](=O)[O-])c4)c(Oc4cnc5[nH]ccc5c4)c3)CC2)=C(c2ccc(Cl)cc2)C1 [Example 237, 4-(4-{[2-(4-chlorophenyl)-4,4-dimethylcyclohex-1-en-1-yl]methyl}piperazin-1-yl)-N-[(3-nitro-4-{[4-(tetrahydro-2H-pyran-4-yl)piperazin-1-yl]amino}phenyl)sulfonyl]-2-(1H-pyrrolo[2,3-b]pyridin-5-yloxy)benzamide] | 24 |
| CC1(C)CCC(CN2CCN(c3ccc(C(=O)NS(=O)(=O)c4ccc(N[C@@H]5CCN(C(CF)CF)C5)c([N+](=O)[O-])c4)c(Oc4cnc5[nH]ccc5c4)c3)CC2)=C(c2ccc(Cl)cc2)C1 [Example 207, 4-(4-{[2-(4-chlorophenyl)-4,4-dimethylcyclohex-1-en-1-yl]methyl}piperazin-1-yl)-N-{[4-({(3R)-1-[2-fluoro-1-(fluoromethyl)ethyl]pyrrolidin-3-yl}amino)-3-nitrophenyl]sulfonyl}-2-(1H-pyrrolo[2,3-b]pyridin-5-yloxy)benzamide] | 30 |
| CCN(C)C(=O)N1CCOC(CNc2ccc(S(=O)(=O)NC(=O)c3ccc(N4CCN(CC5=C(c6ccc(Cl)cc6)CC(C)(C)CC5)CC4)cc3Oc3cnc4[nH]ccc4c3)cc2Cl)C1 (centres unmarked) [Example 333, 2-{[(2-chloro-4-{[4-(4-{[2-(4-chlorophenyl)-4,4-dimethylcyclohex-1-en-1-yl]methyl}piperazin-1-yl)-2-(1H-pyrrolo[2,3-b]pyridin-5-yloxy)benzoyl]sulfamoyl}phenyl)amino]methyl}-N-ethyl-N-methylmorpholine-4-carboxamide] | 511 |
| CN(C)CC(=O)N1CCO[C@@H](CNc2ccc(S(=O)(=O)NC(=O)c3ccc(N4CCN(CC5=C(c6ccc(Cl)cc6)CC(C)(C)CC5)CC4)cc3Oc3cnc4[nH]ccc4c3)cc2[N+](=O)[O-])C1 [Example 259, 4-(4-{[2-(4-chlorophenyl)-4,4-dimethylcyclohex-1-en-1-yl]methyl}piperazin-1-yl)-N-{[4-({[(2S)-4-(N,N-dimethylglycyl)morpholin-2-yl]methyl}amino)-3-nitrophenyl]sulfonyl}-2-(1H-pyrrolo[2,3-b]pyridin-5-yloxy)benzamide] | < 10 |
| CC1(C)CCC(CN2CCN(c3ccc(C(=O)NS(=O)(=O)c4cc(Cl)c(NCC5CCOCC5)c(C#N)c4)c(Oc4cnc5[nH]ccc5c4)c3)CC2)=C(c2ccc(Cl)cc2)C1 [Example 52, N-({3-chloro-5-cyano-4-[(tetrahydro-2H-pyran-4-ylmethyl)amino]phenyl}sulfonyl)-4-(4-{[2-(4-chlorophenyl)-4,4-dimethylcyclohex-1-en-1-yl]methyl}piperazin-1-yl)-2-(1H-pyrrolo[2,3-b]pyridin-5-yloxy)benzamide] | 114 |
| COCCNc1ccc(S(=O)(=O)NC(=O)c2ccc(N3CCN(CC4=C(c5ccc(Cl)cc5)CC(C)(C)CC4)CC3)cc2Oc2ccc3[nH]ccc3c2)cc1[N+](=O)[O-] [Example 20, 4-(4-{[2-(4-chlorophenyl)-4,4-dimethylcyclohex-1-en-1-yl]methyl}piperazin-1-yl)-2-(1H-indol-5-yloxy)-N-({4-[(2-methoxyethyl)amino]-3-nitrophenyl}sulfonyl)benzamide] | 181 |

Same assay, conditions: Table 4, selected compounds of Ser. No. 12/631,404; read-out: Bcl-2 FRET Ki

| Compound | Ki [pM] |
| --- | --- |
| COCCNc1ccc(S(=O)(=O)NC(=O)c2ccc(N3CCN(CC4=C(c5ccc(Cl)cc5)CC(C)(C)CC4)CC3)cc2Oc2ccc3[nH]ccc3c2)cc1[N+](=O)[O-] [Example 20, 4-(4-{[2-(4-chlorophenyl)-4,4-dimethylcyclohex-1-en-1-yl]methyl}piperazin-1-yl)-2-(1H-indol-5-yloxy)-N-({4-[(2-methoxyethyl)amino]-3-nitrophenyl}sulfonyl)benzamide] | 181 |

Same assay, conditions: Table 5, direct comparison Z=N vs Z=C analogs; read-out: Bcl-2 FRET ki

| Compound | Ki [pM] |
| --- | --- |
| COCCNc1ccc(S(=O)(=O)NC(=O)c2ccc(N3CCN(CC4=C(c5ccc(Cl)cc5)CC(C)(C)CC4)CC3)cc2Oc2ccc3[nH]ccc3c2)cc1[N+](=O)[O-] [Example 20, 4-(4-{[2-(4-chlorophenyl)-4,4-dimethylcyclohex-1-en-1-yl]methyl}piperazin-1-yl)-2-(1H-indol-5-yloxy)-N-({4-[(2-methoxyethyl)amino]-3-nitrophenyl}sulfonyl)benzamide] | 181 |
